# Results reported in patent publication US8030321B2, “Benzofuro- and benzothienopyrimidine modulators of the histamine H4 receptor” (Janssen Pharmaceutica, NV, priority 2006, dated 2011).
# pKi: −log10 of the molar value. Where a name gives a salt, the structure may show the parent alone.
# Molecular target: T1, human histamine H4 receptor (Homo sapiens, UniProt Q9H3N8)
# T1 construct: expressed in transfected cells; host or cells: SK-N-MC cells or COS7 cells, transiently transfected; cell membranes used
# Experiment: Binding Assay on Recombinant Human Histamine H4 Receptor
# Conditions: competition binding with 3H-histamine (5 nM), membranes of SK-N-MC or COS7 cells expressing human H4 receptor; Cheng-Prusoff, KD 5 nM; average of results obtained; read-out: Ki
# Outline: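 Membranes from SK-N-MC or COS7 cells transiently transfected with human H4 receptor were incubated with ³H-histamine (5-70 nM); nonspecific binding defined with 10,000 nM histamine. Bound radioactivity collected by GF/C filtration and scintillation counting; test compounds assessed by displacement of ³H-ligand binding across concentrations.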
row,pKi,SMILES
1,7.37,"Nc1nc(N2CCC[C@H](N)C2)c2oc3ccc(C(F)(F)F)cc3c2n1 [Example 141, (S)-4-(3-Amino-piperidin-1-yl)-8-trifluoromethyl-benzo[4,5]furo[3,2-d]pyrimidin-2-ylamine trifluoroacetic acid salt]"
2,7.89,"Nc1nc(N2CCNCC2)c2oc3ccc(C(F)(F)F)cc3c2n1 [Example 142, 4-piperazin-1-yl-8-trifluoromethyl-benzo[4,5]furo[3,2-d]pyrimidin-2-ylamine trifluoroacetic acid salt]"
3,6.57,"Nc1nc(N2C[C@@H]3C[C@H]2CN3)c2oc3ccc(C(F)(F)F)cc3c2n1 [Example 143, (S,S)-4-(2,5-Diaza-bicyclo[2.2.1]hept-2-yl)-8-trifluoromethyl-benzo[4,5]furo[3,2-d]pyrimidin-2-ylamine citrate salt]"
4,< 5.00,"Nc1nc(N2CC(N)C2)c2oc3ccc(C(F)(F)F)cc3c2n1 [Example 144, 4-(3-Amino-azetidin-1-yl)-8-trifluoromethyl-benzo[4,5]furo[3,2-d]pyrimidin-2-ylamine]"
5,6.80,"CN1CCN(c2nc(N)nc3c2oc2ccc(F)c(F)c23)CC1 [Example 145, 8,9-Difluoro-4-(4-methyl-piperazin-1-yl)-benzo[4,5]furo[3,2-d]pyrimidin-2-ylamine trifluoroacetic acid salt]"
6,5.89,"Nc1nc(N2CCNCC2)c2oc3ccc(F)c(F)c3c2n1 [Example 146, 8,9-Difluoro-4-piperazin-1-yl-benzo[4,5]furo[3,2-d]pyrimidin-2-ylamine trifluoroacetic acid salt]"
7,< 5.00,"Nc1nc(N2CCC[C@H](N)C2)c2oc3ccc(F)c(F)c3c2n1 [Example 147, (S)-4-(3-Amino-piperidin-1-yl)-8,9-difluoro-benzo[4,5]furo[3,2-d]pyrimidin-2-ylamine trifluoroacetic acid salt]"
8,7.41,"CN[C@@H]1CCN(c2nc(N)nc3c2oc2ccc(F)c(F)c23)C1 [Example 148, (R)-8,9-Difluoro-4-(3-methylamino-pyrrolidin-1-yl)-benzo[4,5]furo[3,2-d]pyrimidin-2-ylamine trifluoroacetic acid salt]"
9,5.27,"Nc1nc(N2CC(N)C2)c2oc3ccc(F)c(F)c3c2n1 [Example 150, 4-(3-Amino-azetidin-1-yl)-8,9-difluoro-benzo[4,5]furo[3,2-d]pyrimidin-2-ylamine trifluoroacetic acid salt]"
10,7.13,"CN1CCN(c2nc(N)nc3c2oc2cccc(Cl)c23)CC1 [Example 151, 9-Chloro-4-(4-methyl-piperazin-1-yl)-benzo[4,5]furo[3,2-d]pyrimidin-2-ylamine trifluoroacetic acid salt]"
11,7.06,"CN[C@@H]1CCN(c2nc(N)nc3c2oc2cccc(Cl)c23)C1 [Example 152, (R)-9-Chloro-4-(3-methylamino-pyrrolidin-1-yl)-benzo[4,5]furo[3,2-d]pyrimidin-2-ylamine trifluoroacetic acid salt]"
12,5.99,"Nc1nc(N2CCNCC2)c2oc3cccc(Cl)c3c2n1 [Example 153, 9-Chloro-4-piperazin-1-yl-benzo[4,5]furo[3,2-d]pyrimidin-2-ylamine trifluoroacetic acid salt]"
13,< 5.00,"Nc1nc(N2CCC[C@H](N)C2)c2oc3cccc(Cl)c3c2n1 [Example 154, (S)-4-(3-Amino-piperidin-1-yl)-9-chloro-benzo[4,5]furo[3,2-d]pyrimidin-2-ylamine trifluoroacetic acid salt]"

row,SMILES,pKi
1,"Nc1nc(N2C[C@@H]3C[C@H]2CN3)c2oc3ccc(F)c(F)c3c2n1 [Example 149, (S,S)-4-(2,5-Diaza-bicyclo[2.2.1]hept-2-yl)-8,9-difluoro-benzo[4,5]furo[3,2-d]pyrimidin-2-ylamine trifluoroacetic acid salt]",< 5.00
2,"Nc1nc(N2C[C@@H]3C[C@H]2CN3)c2oc3cccc(Cl)c3c2n1 [Example 155, (S,S)-9-Chloro-4-(2,5-diaza-bicyclo[2.2.1]hept-2-yl)-benzo[4,5]furo[3,2-d]pyrimidin-2-ylamine trifluoroacetic acid salt]",6.34
